Where two headings read alike, the source gives them in different places.
Assays:
[1] = target: T1, serotonin 5-HT2A receptors (Rattus norvegicus, UniProt P14842); assay: Radioligand binding assay, 5-HT2A receptors
T1 construct: from tissue; host or cells: rat brain tissues

Albino Swiss mice [2] = assay: Forced swim test; conditions: for Immobility time (s) Mean ± SEM: last 4 min of session
CD-1 mice [3] = assay: MK-801-induced hyperlocomotor activity
[4] = target: T2, serotonin 5-HT1A receptors (Rattus norvegicus, UniProt P19327); assay: Radioligand binding assay, 5-HT1A receptors
T2 construct: from tissue; host or cells: rat brain tissues
T2 sequence (P19327 1-422): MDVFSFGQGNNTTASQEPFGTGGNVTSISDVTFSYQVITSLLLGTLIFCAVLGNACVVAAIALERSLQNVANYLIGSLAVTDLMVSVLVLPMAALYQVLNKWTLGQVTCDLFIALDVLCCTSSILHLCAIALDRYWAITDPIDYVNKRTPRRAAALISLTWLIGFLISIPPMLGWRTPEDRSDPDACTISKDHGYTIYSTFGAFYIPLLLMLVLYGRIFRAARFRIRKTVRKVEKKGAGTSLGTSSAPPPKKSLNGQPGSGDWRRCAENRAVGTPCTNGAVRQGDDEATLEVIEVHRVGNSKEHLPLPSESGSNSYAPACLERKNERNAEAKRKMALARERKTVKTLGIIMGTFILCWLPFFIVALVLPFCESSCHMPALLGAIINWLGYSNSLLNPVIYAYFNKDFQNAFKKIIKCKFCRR
Description: All compounds were tested for their affinities for 5-HT1A, 5-HT2A, and D2 receptors according to previously described procedures (Stefanowicz et al. [2016]).
Competition binding studies were performed according to a previously described procedure in rat brain tissues (Stefanowicz et al. [2016]).

CD-1 mice [5] = assay: Spontaneous locomotor activity; type: in vivo
dopamine D2 receptors [6] = target: T3, dopamine D2 receptors (Rattus norvegicus, UniProt P61169); assay: Radioligand binding assay, D2 receptors
Albino Swiss mice [7] = assay: Four-plate test
CD-1 mice [8] = assay: d-Amphetamine-induced hyperlocomotor activity
[9] = target: T1, serotonin 5-HT2A receptors; design: method as in Słowiński et al. 2011, 2013; Stefanowicz et al. 2016; conditions: earlier lead structures, Fig. 1/Fig. 2; ref Słowiński et al. 2011, 2013; Stefanowicz et al. 2016; cited from earlier work
dopamine D2 receptors [10] = target: T3, dopamine D2 receptors; design: method as in Słowiński et al. 2011, 2013; Stefanowicz et al. 2016; conditions: earlier lead structures, Fig. 1/Fig. 2; ref Słowiński et al. 2011, 2013; Stefanowicz et al. 2016; cited from earlier work
[11] = target: T2, serotonin 5-HT1A receptors; conditions: earlier lead structures, Fig. 1/Fig. 2; ref Słowiński et al. 2011, 2013; Stefanowicz et al. 2016; cited from earlier work
[12] = 2.5 mg/kg i.p. 30 min before test
[13] = 5 mg/kg i.p. 30 min before test
[14] = 10 mg/kg i.p. 30 min before test

T3 sequence (P61169 1-415 isoform P61169-2): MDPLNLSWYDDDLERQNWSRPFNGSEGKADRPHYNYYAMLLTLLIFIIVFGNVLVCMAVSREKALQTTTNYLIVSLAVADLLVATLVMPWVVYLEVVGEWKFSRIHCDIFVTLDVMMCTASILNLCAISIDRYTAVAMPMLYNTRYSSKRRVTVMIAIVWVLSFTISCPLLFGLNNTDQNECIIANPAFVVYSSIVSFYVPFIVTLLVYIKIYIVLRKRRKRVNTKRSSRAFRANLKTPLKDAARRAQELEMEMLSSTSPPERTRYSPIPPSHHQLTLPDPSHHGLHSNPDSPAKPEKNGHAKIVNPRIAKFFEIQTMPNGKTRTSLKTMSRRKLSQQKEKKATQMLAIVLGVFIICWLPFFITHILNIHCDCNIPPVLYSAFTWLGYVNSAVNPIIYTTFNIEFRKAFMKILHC
T1 sequence (P14842 whole entry): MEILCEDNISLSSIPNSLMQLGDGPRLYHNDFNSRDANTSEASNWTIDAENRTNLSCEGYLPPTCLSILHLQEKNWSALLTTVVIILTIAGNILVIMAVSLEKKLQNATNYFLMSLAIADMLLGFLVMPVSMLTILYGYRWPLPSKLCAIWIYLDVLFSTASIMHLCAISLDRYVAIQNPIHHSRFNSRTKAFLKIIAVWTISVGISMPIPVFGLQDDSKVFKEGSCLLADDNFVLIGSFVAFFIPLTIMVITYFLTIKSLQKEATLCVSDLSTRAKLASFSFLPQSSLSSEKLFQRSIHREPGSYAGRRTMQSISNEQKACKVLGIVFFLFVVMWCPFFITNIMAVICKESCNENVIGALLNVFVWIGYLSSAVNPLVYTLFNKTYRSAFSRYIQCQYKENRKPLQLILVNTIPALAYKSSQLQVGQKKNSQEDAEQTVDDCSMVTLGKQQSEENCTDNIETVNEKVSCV

Nc1ccccc1CN1C2CCC1CC(NC(=O)c1ccc3ccccc3c1)C2 (stereo not shown) [Compound 19a]
Ki [1]: 46.8 ± 5.5 nM
IC50 ([1]; rat brain tissues, read-out: 5-HT2A IC50 [nM] ± SEM): 173 ± 19.3 nM
Immobility time (s) Mean ± SEM (Albino Swiss mice [2]; 1.25 mg/kg i.p. 30 min before test): 120.00 ± 16.6 s
Immobility time (s) Mean ± SEM (Albino Swiss mice [2]; [12]): 128.89 ± 12.3 s
decrease of immobility time vs. respective control group (Albino Swiss mice [2]; 5 mg/kg i.p.): about 43%
Immobility time (s) Mean ± SEM (Albino Swiss mice [2]; [13]): 96.56 ± 16.2; p < 0,01 F(3,31) = 4.5279; p < 0.01 s
effect on MK-801-induced hyperlocomotor activity (CD-1 mice [3]; 5 mg/kg and 10 mg/kg i.p.): significantly reduced
Number of crossings/60 min Mean ± SEM (CD-1 mice [3]; compound 1.25 mg/kg i.p. 30 min + MK-801 0.2 mg/kg): 4646.4 ± 675.6; ns, ns crossings/60 min
Number of crossings/60 min Mean ± SEM (CD-1 mice [3]; compound 2.5 mg/kg i.p. 30 min + MK-801 0.2 mg/kg): 3832.0 ± 991.3; ns, ns F(3,33) = 5.2088; p < 0.01 crossings/60 min
Number of crossings/60 min Mean ± SEM (CD-1 mice [3]; compound 5 mg/kg i.p. 30 min + MK-801 0.2 mg/kg): 2915.4 ± 580.2; p < 0.001 vs. MK; ns vs. contr F(2,27) = 16.679; p < 0.0001 crossings/60 min
Number of crossings/60 min Mean ± SEM (CD-1 mice [3]; compound 10 mg/kg i.p. 30 min + MK-801 0.2 mg/kg): 808.7 ± 66.3; p < 0.0001 vs. Mk; p < 0.05 vs. contr F(2,20) = 23.813; p < 0.001 crossings/60 min
melting point: 172.7 to 173.3 °C
Ki [4]: 53 ± 2 nM
IC50 ([4]; rat brain tissues, read-out: 5-HT1A IC50 [nM] ± SEM): 159 ± 5.5 nM
Number of crossings/60 min Mean ± SEM (CD-1 mice [5]; [12]): 1634.4 ± 511.9 F(2,27) = 0.7417; NS crossings/60 min
Number of crossings/60 min Mean ± SEM (CD-1 mice [5]; [13]): 1480.4 ± 302.3 crossings/60 min
decrease of spontaneous locomotor activity (CD-1 mice [5]; 10 mg/kg): about 70%
Number of crossings/60 min Mean ± SEM (CD-1 mice [5]; [14]): 491.6 ± 126.5 F(2,26) = 5.3557; p < 0.05 crossings/60 min
Ki (dopamine D2 receptors [6]): 41.5 ± 1.5 nM
IC50 (dopamine D2 receptors [6]; rat brain tissues, read-out: D2 IC50 [nM] ± SEM): 209 ± 5.5 nM
Number of punished crossings /1 min Mean ± SEM (Albino Swiss mice [7]; [12]): 3.2 ± 0.5 crossings/1 min
Number of punished crossings /1 min Mean ± SEM (Albino Swiss mice [7]; [13]): 1.1 ± 0.2 crossings/1 min
Number of punished crossings /1 min Mean ± SEM (Albino Swiss mice [7]; [14]): 3.2 ± 0.5 F(3,33) = 5.6670; p < 0.01 crossings/1 min
Number of crossings/60 min Mean ± SEM (CD-1 mice [8]; compound 5 mg/kg i.p. + d-amphetamine 2.5 mg/kg s.c.): 4328.6 ± 1146.8 crossings/60 min
Number of crossings/60 min Mean ± SEM (CD-1 mice [8]; compound 10 mg/kg i.p. + d-amphetamine 2.5 mg/kg s.c.): 950.0 ± 411.7; p < 0.01 vs. amph.; ns vs. contr F(3,35) = 5.6910; p < 0.01 crossings/60 min
activity in d-amphetamine-induced hyperlocomotor activity test (CD-1 mice [8]; i.p.): active in this test only at a dose of 10 mg/kg i.p.

O=C(NC1CC2CCC(C1)N2Cc1cccc(Br)c1)c1ccc2ccccc2c1 (stereo not shown) [R = -Br]
Ki [9]: 106 nM

Cc1cccc(CN2C3CCC2CC(NC(=O)c2ccc4ccccc4c2)C3)c1 (stereo not shown) [R = -CH3]
Ki [9]: 231 nM

O=C(NC1CC2CCC(C1)N2Cc1ccccc1)c1ccc2ccccc2c1 (stereo not shown) [compound A]
Ki (dopamine D2 receptors [10]): 82.4 nM
Ki [11]: 304 nM
Ki [9]: 2.5 nM

— publication PMC6061170, “Synthesis and biological investigations of 3β-aminotropane arylamide derivatives with atypical antipsychotic profile” (Medicinal Chemistry Research, 2018)
